The target of experiment [1] is T1, SST5 (Homo sapiens, UniProt P35346).
T1 construct: purchased Perkin Elmer BioSignal; host or cells: HEK 293
The experiment in a line: GPCR radioligand binding (RLB) assay, somatostatin SST5, [125I]SST-14. To be noted: 10 micromolar compound; recombinant human receptor membranes (HEK 293). Summed up:
(§1)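 Membranes from HEK 293 cells expressing the recombinant human receptor were equilibrated with [125I]SST-14 (SST5) or [125I]NDP-αMSH (MC4), then compound added for an optimized incubation. Bound ligand separated by filtration on PEI-coated glass fiber and counted by liquid scintillation.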

The target in experiment [2] is T2, MC4 (Homo sapiens, UniProt P32245).
T2 construct: purchased Perkin Elmer BioSignal; host or cells: HEK 293
T2 sequence (P32245 whole entry): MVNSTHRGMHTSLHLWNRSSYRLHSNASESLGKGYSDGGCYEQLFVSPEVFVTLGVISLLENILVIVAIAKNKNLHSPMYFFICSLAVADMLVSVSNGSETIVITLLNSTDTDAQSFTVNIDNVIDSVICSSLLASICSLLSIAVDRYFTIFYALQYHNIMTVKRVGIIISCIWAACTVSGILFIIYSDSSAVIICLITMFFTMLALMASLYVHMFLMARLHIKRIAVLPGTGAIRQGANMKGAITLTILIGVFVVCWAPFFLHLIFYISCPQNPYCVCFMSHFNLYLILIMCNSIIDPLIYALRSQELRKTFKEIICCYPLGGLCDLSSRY
The experiment in a line: GPCR radioligand binding (RLB) assay, melanocortin MC4, [125I]NDP-αMSH. To be noted: 10 micromolar compound; recombinant human receptor membranes (HEK 293). Summed up: as §1

T1 sequence (P35346 whole entry): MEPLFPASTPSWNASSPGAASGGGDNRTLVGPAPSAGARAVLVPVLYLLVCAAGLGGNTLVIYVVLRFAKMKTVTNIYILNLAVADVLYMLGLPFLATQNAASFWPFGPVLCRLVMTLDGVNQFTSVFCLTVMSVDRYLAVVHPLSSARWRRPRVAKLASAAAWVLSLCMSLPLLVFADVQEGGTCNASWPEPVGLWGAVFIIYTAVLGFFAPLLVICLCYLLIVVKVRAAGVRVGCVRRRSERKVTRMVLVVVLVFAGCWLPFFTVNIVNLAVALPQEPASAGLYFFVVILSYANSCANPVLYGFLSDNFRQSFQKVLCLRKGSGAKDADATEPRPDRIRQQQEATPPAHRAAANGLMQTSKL

As for `CSC1OC(COCc2ccc(-c3ccccc3)cc2)C(O)C(OCc2ccccc2)C1NC(=O)CNC(=N)N` (centres unmarked) [Compound 132], the “SST5 inhibition at 10 micromolar” value in experiment [1] is listed as “+ (Indicates inhibition greater than . . . 50%)”. Besides, in experiment [2], the “MC4 inhibition at 10 micromolar” value is “+ (Indicates inhibition greater than . . . 50%)”.
With `CSC1OC(COCc2ccc(-c3ccccc3)cc2)C(O)C(OCc2ccccc2)C1NC(=O)CCN` (centres unmarked) [Compound 133], in experiment [1], the “SST5 inhibition at 10 micromolar” value is listed as “+ (Indicates inhibition greater than . . . 50%)”. Also, the “MC4 inhibition at 10 micromolar” value in experiment [2] was “+ (Indicates inhibition greater than . . . 50%)”.
In the case of `CSC1OC(COCc2ccc(-c3ccccc3)cc2)C(O)C(OCc2ccccc2)C1NC(=O)CCNC(=N)N` (centres unmarked) [Compound 134], the “SST5 inhibition at 10 micromolar” value in experiment [1] is “+ (Indicates inhibition greater than . . . 50%)”. Also, in experiment [2], the “MC4 inhibition at 10 micromolar” value was “+ (Indicates inhibition greater than . . . 50%)”.
Take `CSC1OC(COCc2ccc(-c3ccccc3)cc2)C(O)C(OCc2ccccc2)C1NC(=O)CCCN` (centres unmarked) [Compound 135]: the “SST5 inhibition at 10 micromolar” value in experiment [1] is reported as “+ (Indicates inhibition greater than . . . 50%)”. The “MC4 inhibition at 10 micromolar” value in experiment [2] is recorded as “+ (Indicates inhibition greater than . . . 50%)”.
Consider `CSC1OC(COCc2ccc(-c3ccccc3)cc2)C(O)C(OCc2ccccc2)C1NC(=O)CCCNC(=N)N` (centres unmarked) [Compound 136], for which, in experiment [1], the “SST5 inhibition at 10 micromolar” value was “+ (Indicates inhibition greater than . . . 50%)”. In experiment [2], the “MC4 inhibition at 10 micromolar” value is recorded as “+ (Indicates inhibition greater than . . . 50%)”.
In the case of `CSC1OC(COCc2ccc3ccccc3c2)C(O)C(OCc2ccccc2)C1NC(=O)CN` (centres unmarked) [Compound 137], the “SST5 inhibition at 10 micromolar” value in experiment [1] is “+ (Indicates inhibition greater than . . . 50%)”. The “MC4 inhibition at 10 micromolar” value in experiment [2] is “+ (Indicates inhibition greater than . . . 50%)”.
With `CSC1OC(COCc2ccc3ccccc3c2)C(O)C(OCc2ccccc2)C1NC(=O)CNC(=N)N` (centres unmarked) [Compound 138], the “SST5 inhibition at 10 micromolar” value in experiment [1] was “+ (Indicates inhibition greater than . . . 50%)”. Besides, the “MC4 inhibition at 10 micromolar” value in experiment [2] is on record as “+ (Indicates inhibition greater than . . . 50%)”.
As for `CSC1OC(COCc2ccc3ccccc3c2)C(O)C(OCc2ccccc2)C1NC(=O)CCN` (centres unmarked) [Compound 139], in experiment [1], the “SST5 inhibition at 10 micromolar” value is “+ (Indicates inhibition greater than . . . 50%)”. Besides, in experiment [2], the “MC4 inhibition at 10 micromolar” value is given as “+ (Indicates inhibition greater than . . . 50%)”.
On to `CSC1OC(COCc2ccc3ccccc3c2)C(O)C(OCc2ccccc2)C1NC(=O)CCNC(=N)N` (centres unmarked) [Compound 140], for which the “SST5 inhibition at 10 micromolar” value in experiment [1] was “+ (Indicates inhibition greater than . . . 50%)”. The “MC4 inhibition at 10 micromolar” value in experiment [2] is “+ (Indicates inhibition greater than . . . 50%)”.
As to `CSC1OC(COCc2ccc3ccccc3c2)C(O)C(OCc2ccccc2)C1NC(=O)CCCN` (centres unmarked) [Compound 141], the “SST5 inhibition at 10 micromolar” value in experiment [1] is “+ (Indicates inhibition greater than . . . 50%)”. Further, the “MC4 inhibition at 10 micromolar” value in experiment [2] was “+ (Indicates inhibition greater than . . . 50%)”.
For the compound `CSC1OC(COCc2ccc3ccccc3c2)C(O)C(OCc2ccccc2)C1NC(=O)CCCNC(=N)N` (centres unmarked) [Compound 142], the “SST5 inhibition at 10 micromolar” value in experiment [1] is “+ (Indicates inhibition greater than . . . 50%)”. Also, the “MC4 inhibition at 10 micromolar” value in experiment [2] is “+ (Indicates inhibition greater than . . . 50%)”.
For `CSC1OC(COCc2ccccc2)C(O)C(OCc2ccc(Cl)cc2)C1NC(=O)CNC(=N)N` (centres unmarked) [Compound 144], the “SST5 inhibition at 10 micromolar” value in experiment [1] was “+ (Indicates inhibition greater than . . . 50%)”. For the same compound, the “MC4 inhibition at 10 micromolar” value in experiment [2] is “+ (Indicates inhibition greater than . . . 50%)”.
`CSC1OC(COCc2ccccc2)C(O)C(OCc2ccc(Cl)cc2)C1NC(=O)CCN` (centres unmarked) [Compound 145]: in experiment [1], the “SST5 inhibition at 10 micromolar” value is “+ (Indicates inhibition greater than . . . 50%)”. Moreover, the “MC4 inhibition at 10 micromolar” value in experiment [2] is given as “+ (Indicates inhibition greater than . . . 50%)”.
As to `CSC1OC(COCc2ccccc2)C(O)C(OCc2ccc(Cl)cc2)C1NC(=O)CCNC(=N)N` (centres unmarked) [Compound 146], in experiment [1], the “SST5 inhibition at 10 micromolar” value was “+ (Indicates inhibition greater than . . . 50%)”. Further, the “MC4 inhibition at 10 micromolar” value in experiment [2] is given as “+ (Indicates inhibition greater than . . . 50%)”.
As for `CSC1OC(COCc2ccccc2)C(O)C(OCc2ccc(Cl)cc2)C1NC(=O)CCCNC(=N)N` (centres unmarked) [Compound 148], the “SST5 inhibition at 10 micromolar” value in experiment [1] is listed as “+ (Indicates inhibition greater than . . . 50%)”. Also, the “MC4 inhibition at 10 micromolar” value in experiment [2] was “+ (Indicates inhibition greater than . . . 50%)”.
On to `CSC1OC(COCc2ccc(Cl)cc2)C(O)C(OCc2ccc(Cl)cc2)C1NC(=O)CNC(=N)N` (centres unmarked) [Compound 150], for which the “SST5 inhibition at 10 micromolar” value in experiment [1] is “+ (Indicates inhibition greater than . . . 50%)”. Moreover, in experiment [2], the “MC4 inhibition at 10 micromolar” value is recorded as “+ (Indicates inhibition greater than . . . 50%)”.
For the compound `CSC1OC(COCc2ccc(Cl)cc2)C(O)C(OCc2ccc(Cl)cc2)C1NC(=O)CCN` (centres unmarked) [Compound 151], in experiment [1], the “SST5 inhibition at 10 micromolar” value is recorded as “+ (Indicates inhibition greater than . . . 50%)”. For the same compound, in experiment [2], the “MC4 inhibition at 10 micromolar” value is recorded as “+ (Indicates inhibition greater than . . . 50%)”.
For the compound `CSC1OC(COCc2ccc(Cl)cc2)C(O)C(OCc2ccc(Cl)cc2)C1NC(=O)CCNC(=N)N` (centres unmarked) [Compound 152], in experiment [1], the “SST5 inhibition at 10 micromolar” value is reported as “+ (Indicates inhibition greater than . . . 50%)”. In experiment [2], the “MC4 inhibition at 10 micromolar” value is listed as “+ (Indicates inhibition greater than . . . 50%)”.
In the case of `CSC1OC(COCc2ccc(Cl)cc2)C(O)C(OCc2ccc(Cl)cc2)C1NC(=O)CCCNC(=N)N` (centres unmarked) [Compound 154], the “SST5 inhibition at 10 micromolar” value in experiment [1] is “+ (Indicates inhibition greater than . . . 50%)”. The “MC4 inhibition at 10 micromolar” value in experiment [2] was “+ (Indicates inhibition greater than . . . 50%)”.
Regarding `CSC1OC(COCc2ccc(-c3ccccc3)cc2)C(O)C(OCc2ccc(Cl)cc2)C1NC(=O)CN` (centres unmarked) [Compound 155], the “SST5 inhibition at 10 micromolar” value in experiment [1] is given as “+ (Indicates inhibition greater than . . . 50%)”. Besides, the “MC4 inhibition at 10 micromolar” value in experiment [2] is listed as “+ (Indicates inhibition greater than . . . 50%)”.
`CSC1OC(COCc2ccc(-c3ccccc3)cc2)C(O)C(OCc2ccc(Cl)cc2)C1NC(=O)CNC(=N)N` (centres unmarked) [Compound 156]: the “SST5 inhibition at 10 micromolar” value in experiment [1] is given as “+ (Indicates inhibition greater than . . . 50%)”. For the same compound, the “MC4 inhibition at 10 micromolar” value in experiment [2] is given as “+ (Indicates inhibition greater than . . . 50%)”.
Take `CSC1OC(COCc2ccc(-c3ccccc3)cc2)C(O)C(OCc2ccc(Cl)cc2)C1NC(=O)CCN` (centres unmarked) [Compound 157]: the “SST5 inhibition at 10 micromolar” value in experiment [1] is given as “+ (Indicates inhibition greater than . . . 50%)”. In experiment [2], the “MC4 inhibition at 10 micromolar” value is “+ (Indicates inhibition greater than . . . 50%)”.
With `CSC1OC(COCc2ccc(-c3ccccc3)cc2)C(O)C(OCc2ccc(Cl)cc2)C1NC(=O)CCNC(=N)N` (centres unmarked) [Compound 158], in experiment [1], the “SST5 inhibition at 10 micromolar” value is “+ (Indicates inhibition greater than . . . 50%)”. Also, in experiment [2], the “MC4 inhibition at 10 micromolar” value is listed as “+ (Indicates inhibition greater than . . . 50%)”.
Take `CSC1OC(COCc2ccc(-c3ccccc3)cc2)C(O)C(OCc2ccc(Cl)cc2)C1NC(=O)CCCN` (centres unmarked) [Compound 159]: the “SST5 inhibition at 10 micromolar” value in experiment [1] is listed as “+ (Indicates inhibition greater than . . . 50%)”. Also, the “MC4 inhibition at 10 micromolar” value in experiment [2] is recorded as “+ (Indicates inhibition greater than . . . 50%)”.
With `CSC1OC(COCc2ccc(-c3ccccc3)cc2)C(O)C(OCc2ccc(Cl)cc2)C1NC(=O)CCCNC(=N)N` (centres unmarked) [Compound 160], the “SST5 inhibition at 10 micromolar” value in experiment [1] is “+ (Indicates inhibition greater than . . . 50%)”. Besides, in experiment [2], the “MC4 inhibition at 10 micromolar” value is “+ (Indicates inhibition greater than . . . 50%)”.

(Values after US7994140B2, “Classes of compounds that interact with GPCRs” (Alchemia Limited, priority 2002, dated 2011).)
